Test systems include T-47D breast; SW-620 colon; MOLT-4 leukemia; SK-MEL-28 melanoma; MALME-3M melanoma; OVCAR-8 ovarian; NCI/ADR-RES ovarian; HL-60(TB) leukemia; OVCAR-3 ovarian; NCI-H226 lung; K-562 leukemia; SF-539 CNS; OVCAR-5 ovarian; 786-0 renal; LOX IMVI melanoma; HOP-62 NSCLC; HOP-92 NSCLC; SK-MEL-2 melanoma; BT-549 breast; IGROV1 ovarian.
Common to all, as to assay: NCI-60 cell line screen, 48 h

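Five concentrations, 48 hours, 96-well plates. TGI is the concentration that stops growth completely.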

This note sets out measurements from PubChem BioAssay (NCI).

As for `Nc1cccc(OCC2CCCN3CCCCC23)c1` (stereo not given), the TGI worked out at 33.8 µM in the assay with T-47D breast; 39.4 µM with SW-620 colon; 39.2 µM in the assay with MOLT-4 leukemia; 35.7 µM in the assay with SK-MEL-28 melanoma; 40.4 µM with MALME-3M melanoma; 34.4 µM with OVCAR-8 ovarian. For the same compound, the TGI with NCI/ADR-RES ovarian is 38.3 µM; with HL-60(TB) leukemia it was 39.7 µM; in the assay on OVCAR-3 ovarian, 38.2 µM; in the assay on NCI-H226 lung it was over 100 µM; in the assay on K-562 leukemia, 76.1 µM; in the assay on SF-539 CNS, 36.5 µM. Moreover, the TGI in the assay on OVCAR-5 ovarian turned out to be 35.2 µM; in the assay with 786-0 renal, 29.6 µM; in the assay with LOX IMVI melanoma it was 31.4 µM; in the assay with HOP-62 NSCLC it was 36.1 µM; with HOP-92 NSCLC it was 87.4 µM; with SK-MEL-2 melanoma, 44.9 µM. The TGI in the assay with BT-549 breast came to 30.9 µM.

In the case of `O=CC1C(Cl)=Nc2nc3ccccc3n2C1c1ccccc1` (stereo not given), the TGI was determined as 41.2 µM with T-47D breast; 40.2 µM with SW-620 colon; 30.3 µM with SK-MEL-28 melanoma; 52.5 µM with MALME-3M melanoma; 52.9 µM with OVCAR-8 ovarian; 65.6 µM in the assay on NCI/ADR-RES ovarian. For the same compound, the TGI in the assay on HL-60(TB) leukemia came to 58.3 µM; with OVCAR-3 ovarian, 43.2 µM; with NCI-H226 lung, 38.1 µM; in the assay with K-562 leukemia, 37.3 µM; in the assay on SF-539 CNS, 34 µM; in the assay with OVCAR-5 ovarian, 79.6 µM. The TGI is 43.8 µM with IGROV1 ovarian; 29.5 µM in the assay on 786-0 renal; 29 µM in the assay with LOX IMVI melanoma; 44.2 µM with HOP-62 NSCLC; 25.5 µM in the assay with HOP-92 NSCLC; 27.3 µM in the assay with SK-MEL-2 melanoma. Moreover, the TGI in the assay on BT-549 breast was found to be 29 µM.

Consider `c1ccc(-c2c(-c3cccs3)[nH]c(-c3cccs3)c2-c2ccccn2)nc1`, for which the TGI was 94.9 µM in the assay with T-47D breast; 68.8 µM in the assay on SW-620 colon; 38.3 µM with MOLT-4 leukemia; 77.1 µM in the assay on MALME-3M melanoma; 75.2 µM in the assay on OVCAR-8 ovarian; 64.8 µM in the assay on NCI/ADR-RES ovarian. The TGI in the assay on HL-60(TB) leukemia is over 100 µM; in the assay with OVCAR-3 ovarian it was 58.3 µM; in the assay with NCI-H226 lung, 49.2 µM; with K-562 leukemia it was 37 µM; with SF-539 CNS it was 40.6 µM; in the assay on OVCAR-5 ovarian, 66.6 µM. For the same compound, the TGI in the assay on IGROV1 ovarian is 59.3 µM; with 786-0 renal, 53 µM; in the assay with LOX IMVI melanoma it was 37.1 µM; in the assay on HOP-92 NSCLC, 55.4 µM; with BT-549 breast, 41.5 µM.

Take `CCNC1=C(NC(=O)c2ccccc2)C(=O)c2ccccc2C1=O`: the TGI was over 100 µM in the assay on T-47D breast; over 100 µM in the assay with SW-620 colon; over 100 µM in the assay on MOLT-4 leukemia; over 100 µM with SK-MEL-28 melanoma; 43 µM in the assay with MALME-3M melanoma; over 100 µM with OVCAR-8 ovarian. Moreover, the TGI in the assay with NCI/ADR-RES ovarian is 39.7 µM; with HL-60(TB) leukemia, over 100 µM; in the assay with OVCAR-3 ovarian, 85.3 µM; in the assay with NCI-H226 lung it was over 100 µM; in the assay with K-562 leukemia, over 100 µM; with SF-539 CNS, over 100 µM. For the same compound, the TGI in the assay with OVCAR-5 ovarian, in the assay with IGROV1 ovarian, in the assay with 786-0 renal, in the assay on HOP-62 NSCLC, in the assay with HOP-92 NSCLC and in the assay on BT-549 breast was over 100 µM each time.

On to `c1ccc(Cn2c(-c3ccc(-c4ccccc4)cc3)cc3ccccc32)cc1`, for which the TGI in the assay on T-47D breast, in the assay with SW-620 colon, in the assay on MOLT-4 leukemia, in the assay on SK-MEL-28 melanoma, in the assay with MALME-3M melanoma and with OVCAR-8 ovarian was over 100 µM each time. For the same compound, the TGI in the assay on NCI/ADR-RES ovarian, with HL-60(TB) leukemia, with OVCAR-3 ovarian, with NCI-H226 lung, in the assay with SF-539 CNS and with OVCAR-5 ovarian was over 100 µM in each case. For the same compound, the TGI with IGROV1 ovarian, in the assay on 786-0 renal, in the assay on LOX IMVI melanoma, in the assay on HOP-62 NSCLC, in the assay on HOP-92 NSCLC and with SK-MEL-2 melanoma was over 100 µM throughout. The compound further yielded a TGI in the assay with BT-549 breast of over 100 µM.

Consider `c1ccc2c(c1)c1c3c(c4c(n32)=NCCN4)CCC1`, for which the TGI in the assay with T-47D breast was 92.1 µM; with SW-620 colon, over 100 µM; with MOLT-4 leukemia it was 60.9 µM; with SK-MEL-28 melanoma, over 100 µM; with MALME-3M melanoma, over 100 µM; in the assay with OVCAR-8 ovarian, over 100 µM. For the same compound, the TGI is 99.7 µM with NCI/ADR-RES ovarian; over 100 µM with HL-60(TB) leukemia; over 100 µM in the assay with OVCAR-3 ovarian; 80.9 µM in the assay on NCI-H226 lung; over 100 µM with K-562 leukemia; over 100 µM with SF-539 CNS. Besides, the TGI in the assay on OVCAR-5 ovarian is over 100 µM; with IGROV1 ovarian it was over 100 µM; in the assay on 786-0 renal it was over 100 µM; in the assay with LOX IMVI melanoma, 43.3 µM; in the assay with HOP-62 NSCLC, over 100 µM; in the assay with HOP-92 NSCLC, 88 µM. The TGI in the assay on SK-MEL-2 melanoma was 66.2 µM; in the assay with BT-549 breast, over 100 µM.

In the case of `CCOC(=O)NN(C(=O)OCC)C(=C(C1=CCCCC1)N1CCOCC1)N(NC(=O)OCC)C(=O)OCC`, the TGI in the assay on T-47D breast, with SW-620 colon, in the assay with MOLT-4 leukemia, in the assay on SK-MEL-28 melanoma, with MALME-3M melanoma and in the assay with OVCAR-8 ovarian was over 100 µM throughout. Further, the TGI with NCI/ADR-RES ovarian, with HL-60(TB) leukemia, in the assay with OVCAR-3 ovarian, in the assay on NCI-H226 lung, with K-562 leukemia and in the assay with OVCAR-5 ovarian was over 100 µM in each case. The TGI with IGROV1 ovarian, in the assay with 786-0 renal, in the assay with LOX IMVI melanoma, in the assay with HOP-62 NSCLC, with HOP-92 NSCLC and in the assay with BT-549 breast was over 100 µM each time.
